Data from paper PMC7835349 (Communications Biology, 2021).
“And” between values parts separate entries of the source, which are not always exact repeats. Identical values can stand only once.

Test system: telemetered dogs
Test: Conscious dog telemetry (QRS amplitude and other cardiovascular parameters, tolerability)
Conditions: for ECG PR interval / ECG QRS duration / Left ventricular -dP/dt (mmHg/s) / QRS amplitude (% baseline) / Systolic blood pressure (mmHg): 0.2 mg/kg
[1] = dog 264, 0.5h infusion, -0.75 hours (pre-dose)
[2] = dog 264, 0.5h infusion, -1 hours (pre-dose)
[3] = dog 264, 0.5h infusion, -1.25 hours (pre-dose)
[4] = dog, 0.2 mg/kg 0.5h infusion, 0.5 h
[5] = dog, 0.2 mg/kg 0.5h infusion, 0.75 h
[6] = dog, 0.2 mg/kg 0.5h infusion, 1 h
[7] = dog, 0.2 mg/kg 0.5h infusion, 1.5 h
[8] = dog, 0.2 mg/kg 0.5h infusion, 2 h
[9] = dog, 0.2 mg/kg 0.5h infusion, 3 h
[10] = dog, 0.2 mg/kg 0.5h infusion, 4 h
[11] = dog, 0.2 mg/kg 0.5h infusion, 6 h
[12] = dog, 0.2 mg/kg 0.5h infusion, 8 h
[13] = dog, 0.2 mg/kg 0.5h infusion, 12 h
[14] = dog, 0.2 mg/kg 0.5h infusion, 16 h
[15] = dog, 0.2 mg/kg 0.5h infusion, 22 h
[16] = dog, 0.2 mg/kg 0.5h infusion, -0.75 h
[17] = dog, 0.2 mg/kg 0.5h infusion, -1 h
[18] = dog, 0.2 mg/kg 0.5h infusion, -1.25 h

CN(CCO)CCC(CSc1ccccc1)Nc1ccc(S(=O)(=O)NC(=O)c2ccc(N3CCC(C(O)c4ccccc4-c4ccc(Cl)cc4)CC3)cc2)cc1S(=O)(=O)C(F)(F)F (centres unmarked) [AZD4320]
NOEL (no observed effect level), cardiovascular system (dog): 0.2 mg/kg
ECG PR interval [1]: 111 ms
ECG QRS duration [1]: 46 ms
Left ventricular -dP/dt (mmHg/s) [1]: 3600 mmHg/s
QRS amplitude (% baseline) [1]: 92 % baseline
Systolic blood pressure (mmHg) [1]: 151 mmHg
ECG PR interval [2]: 116 ms
ECG QRS duration [2]: 48 ms
Left ventricular -dP/dt (mmHg/s) [2]: 3490 mmHg/s
QRS amplitude (% baseline) [2]: 71 % baseline
Systolic blood pressure (mmHg) [2]: 155 mmHg
ECG PR interval [3]: 111 ms
ECG QRS duration [3]: 47 ms
QRS amplitude (% baseline) [3]: 83 % baseline
Systolic blood pressure (mmHg) [3]: 145 mmHg
ECG PR interval [4]: 109 ms and 90 ms and 88 ms
ECG QRS duration [4]: 48 ms and 38 ms and 40 ms and 37 ms
Left ventricular -dP/dt (mmHg/s) [4]: 3401 mmHg/s and 3547 mmHg/s and 3477 mmHg/s and 4862 mmHg/s
QRS amplitude (% baseline) [4]: 105 % baseline and 100 % baseline and 97 % baseline and 101 % baseline
Systolic blood pressure (mmHg) [4]: 175 mmHg and 149 mmHg and 155 mmHg and 165 mmHg
ECG PR interval [5]: 113 ms and 82 ms and 85 ms and 87 ms
ECG QRS duration [5]: 49 ms and 37 ms and 40 ms
Left ventricular -dP/dt (mmHg/s) [5]: 3504 mmHg/s and 3607 mmHg/s and 3634 mmHg/s and 4976 mmHg/s
QRS amplitude (% baseline) [5]: 94 % baseline and 91 % baseline and 92 % baseline
Systolic blood pressure (mmHg) [5]: 163 mmHg and 153 mmHg and 156 mmHg and 164 mmHg
ECG PR interval [6]: 116 ms and 88 ms and 93 ms
ECG QRS duration [6]: 47 ms and 38 ms and 40 ms and 37 ms
Left ventricular -dP/dt (mmHg/s) [6]: 3285 mmHg/s and 3388 mmHg/s and 2965 mmHg/s and 4801 mmHg/s
QRS amplitude (% baseline) [6]: 88 % baseline and 90 % baseline and 92 % baseline and 95 % baseline
Systolic blood pressure (mmHg) [6]: 150 mmHg and 144 mmHg and 138 mmHg and 159 mmHg
ECG PR interval [7]: 119 ms and 95 ms and 104 ms and 88 ms
ECG QRS duration [7]: 49 ms and 38 ms and 40 ms and 37 ms
Left ventricular -dP/dt (mmHg/s) [7]: 3080 mmHg/s and 3480 mmHg/s and 2336 mmHg/s and 4643 mmHg/s
QRS amplitude (% baseline) [7]: 83 % baseline and 97 % baseline and 84 % baseline and 99 % baseline
Systolic blood pressure (mmHg) [7]: 135 mmHg and 152 mmHg and 130 mmHg and 156 mmHg
ECG PR interval [8]: 110 ms and 85 ms and 101 ms and 91 ms
ECG QRS duration [8]: 47 ms and 37 ms and 40 ms
QRS amplitude (% baseline) [8]: 86 % baseline and 90 % baseline and 91 % baseline and 95 % baseline
Systolic blood pressure (mmHg) [8]: 167 mmHg and 155 mmHg and 129 mmHg and 164 mmHg
ECG PR interval [9]: 115 ms and 98 ms and 96 ms and 89 ms
ECG QRS duration [9]: 48 ms and 37 ms and 39 ms and 36 ms
Left ventricular -dP/dt (mmHg/s) [9]: 3439 mmHg/s and 3333 mmHg/s and 2944 mmHg/s and 5068 mmHg/s
QRS amplitude (% baseline) [9]: 121 % baseline and 94 % baseline and 76 % baseline and 88 % baseline
Systolic blood pressure (mmHg) [9]: 164 mmHg and 159 mmHg and 145 mmHg and 170 mmHg
ECG PR interval [10]: 106 ms and 97 ms and 92 ms and 91 ms
ECG QRS duration [10]: 46 ms and 36 ms and 39 ms
Left ventricular -dP/dt (mmHg/s) [10]: 3609 mmHg/s and 3205 mmHg/s and 2963 mmHg/s and 4495 mmHg/s
QRS amplitude (% baseline) [10]: 97 % baseline and 82 % baseline and 80 % baseline and 89 % baseline
Systolic blood pressure (mmHg) [10]: 153 mmHg and 136 mmHg and 139 mmHg and 152 mmHg
ECG PR interval [11]: 96 ms and 86 ms and 89 ms and 67 ms
ECG QRS duration [11]: 48 ms and 37 ms and 39 ms
Left ventricular -dP/dt (mmHg/s) [11]: 2830 mmHg/s and 3356 mmHg/s and 3220 mmHg/s and 3767 mmHg/s
QRS amplitude (% baseline) [11]: 108 % baseline and 84 % baseline and 81 % baseline and 102 % baseline
Systolic blood pressure (mmHg) [11]: 147 mmHg and 145 mmHg and 158 mmHg
ECG PR interval [12]: 98 ms and 88 ms and 86 ms and 73 ms
ECG QRS duration [12]: 48 ms and 37 ms and 39 ms
Left ventricular -dP/dt (mmHg/s) [12]: 3465 mmHg/s and 3133 mmHg/s and 2471 mmHg/s and 4567 mmHg/s
QRS amplitude (% baseline) [12]: 100 % baseline and 88 % baseline and 97 % baseline and 93 % baseline
Systolic blood pressure (mmHg) [12]: 144 mmHg and 140 mmHg and 137 mmHg and 142 mmHg
ECG PR interval [13]: 101 ms and 87 ms and 98 ms and 66 ms
ECG QRS duration [13]: 49 ms and 38 ms and 40 ms and 37 ms
Left ventricular -dP/dt (mmHg/s) [13]: 3004 mmHg/s and 2664 mmHg/s and 2608 mmHg/s and 4493 mmHg/s
QRS amplitude (% baseline) [13]: 121 % baseline and 90 % baseline and 84 % baseline
Systolic blood pressure (mmHg) [13]: 133 mmHg and 131 mmHg and 134 mmHg and 165 mmHg
ECG PR interval [14]: 108 ms and 95 ms and 94 ms and 77 ms
ECG QRS duration [14]: 47 ms and 37 ms and 40 ms
Left ventricular -dP/dt (mmHg/s) [14]: 2948 mmHg/s and 3176 mmHg/s and 2965 mmHg/s and 4367 mmHg/s
QRS amplitude (% baseline) [14]: 91 % baseline and 93 % baseline and 81 % baseline and 101 % baseline
Systolic blood pressure (mmHg) [14]: 151 mmHg and 132 mmHg and 146 mmHg and 164 mmHg
ECG PR interval [15]: 115 ms and 93 ms and 97 ms and 80 ms
ECG QRS duration [15]: 48 ms and 38 ms and 39 ms
Left ventricular -dP/dt (mmHg/s) [15]: 3689 mmHg/s and 2854 mmHg/s and 2653 mmHg/s and 4540 mmHg/s
QRS amplitude (% baseline) [15]: 114 % baseline and 97 % baseline and 102 % baseline
Systolic blood pressure (mmHg) [15]: 156 mmHg and 142 mmHg
ECG PR interval [16]: 90 ms and 106 ms and 89 ms
ECG QRS duration [16]: 37 ms and 40 ms
Left ventricular -dP/dt (mmHg/s) [16]: 3499 mmHg/s and 3284 mmHg/s and 4521 mmHg/s
QRS amplitude (% baseline) [16]: 97 % baseline and 88 % baseline and 93 % baseline
Systolic blood pressure (mmHg) [16]: 168 mmHg and 148 mmHg and 160 mmHg
ECG PR interval [17]: 91 ms and 102 ms and 82 ms
ECG QRS duration [17]: 38 ms and 40 ms and 37 ms
Left ventricular -dP/dt (mmHg/s) [17]: 3364 mmHg/s and 3529 mmHg/s and 4819 mmHg/s
QRS amplitude (% baseline) [17]: 99 % baseline and 90 % baseline and 93 % baseline
Systolic blood pressure (mmHg) [17]: 161 mmHg and 160 mmHg and 157 mmHg
ECG PR interval [18]: 90 ms and 95 ms and 93 ms
ECG QRS duration [18]: 37 ms and 40 ms
Left ventricular -dP/dt (mmHg/s) [18]: 3238 mmHg/s and 3347 mmHg/s and 4656 mmHg/s
QRS amplitude (% baseline) [18]: 104 % baseline and 91 % baseline and 97 % baseline
Systolic blood pressure (mmHg) [18]: 147 mmHg and 150 mmHg and 151 mmHg
